Test results taken from patent US6313180A, “Steroid compounds having contraceptive and anti-osteoporosis activity” (priority 1997, dated 2001).

Experiments:
[1] = tested on: human progesterone (P) receptor; assay: Relative progesterone receptor binding affinity, cytoplasmic receptors of MCF-7 cells; conditions: relative to (16α)-16-ethyl-21-hydroxy-19-norpregn-4-ene-3,20-dione, 16 h, 4° C
[2] = molecular target: T1, human estradiol (E) receptor (Homo sapiens, UniProt P03372); assay type: binding
T1 construct: present in human breast tumor cells (MCF-7 cells); endogenous in cells; host or cells: MCF-7 human breast tumor cells
T1 sequence (P03372 1-595): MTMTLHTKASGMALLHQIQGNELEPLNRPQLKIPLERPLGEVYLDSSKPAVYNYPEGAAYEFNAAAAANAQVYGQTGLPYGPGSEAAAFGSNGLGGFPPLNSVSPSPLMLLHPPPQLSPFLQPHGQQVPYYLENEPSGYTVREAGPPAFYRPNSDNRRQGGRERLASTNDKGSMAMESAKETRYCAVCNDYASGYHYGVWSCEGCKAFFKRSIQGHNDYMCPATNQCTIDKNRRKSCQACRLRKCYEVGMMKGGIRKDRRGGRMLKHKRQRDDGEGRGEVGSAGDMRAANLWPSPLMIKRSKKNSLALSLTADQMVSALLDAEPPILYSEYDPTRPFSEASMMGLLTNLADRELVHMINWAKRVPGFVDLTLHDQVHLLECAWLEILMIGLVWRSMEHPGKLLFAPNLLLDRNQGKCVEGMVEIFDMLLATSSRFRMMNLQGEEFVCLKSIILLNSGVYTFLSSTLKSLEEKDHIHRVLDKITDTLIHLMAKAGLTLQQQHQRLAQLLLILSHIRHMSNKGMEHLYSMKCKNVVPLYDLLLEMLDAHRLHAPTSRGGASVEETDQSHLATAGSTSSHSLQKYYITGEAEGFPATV
Protocol: The relative estradiol receptor binding affinity was measured in the same manner as described above but using 17βestradiol as a reference.
(§1) Several of the compounds according to the Examples I-VI, as well as other compounds according to the invention synthesized in analogous manner, were subjected to the tests described in the Examples VII and VIII. The results are described in the Table, in which the type of A-ring and the substitution at carbon atoms nos. 7, 11, and 17 is indicated. In the columns captioned E and P, the relative binding affinities for the estrogen and progesterone receptors are given; the ED50 results of the AllenDoisy and the McPhail tests have been indicated in μg/kg. In the column captioned "Osteoporosis", the ED50 results of the anti-osteoporosis test are given (dose in μg/kg, day, as described above).

[3] = McPhail test for progestagenic activity in vivo; conditions: oral administration; progestagenic activity; read-out: McPhail ED50
[4] = Allen Doisy test for estrogenic activity in vivo; conditions: oral administration; estrogenic activity; read-out: AllenDoisy ED50
ovariectomised rats = assay: Prevention of ovariectomy-induced bone loss in rats (anti-osteoporosis test, pQCT trabecular bone mineral density); assay type: in vivo, rat (female Wistar); conditions: Rattus norvegicus, 672 h; oral administration; ovariectomised rats, once or twice daily for 4 weeks; 40-60% proportional difference in trabecular bone mineral density; read-out: Osteoporosis ED50
Text: Ovariectomy induces in rats bone loss, which is due to oestrogen deficiency. Administration of oestrogenic compounds prevents this effect. The test is used to evaluate a compound for anti-osteoporotic activity in ovariectomised rats. The effect on bone mass can be evaluated by peripheral Quantitave Computed Tomography (pQCT) measurement of trabecular bone mineral density.
Mature virgin female Wistar rats preferentially, 225-250 g. Strain: Hsd/Cpd:Wu, SPF-bred by Harlan, CPB, Zeist, The Netherlands.
On day 1 of the experiment the rats are weighed and distributed over the cages in order of body weight. The rat with the lowest body weight in the first cage and the heaviest rat in the last cage. Treatments are randomized over the rats per block. A block (group of 3+n treatments) consists of 1 Intact placebo rat, 1 OVX placebo rat, 1 OVX reference rat and 1 rat of each n treatments.
Sham-operation and ovariectomy are performed under ether anaesthesia. After recovery from the anaesthesia, within 24 h, vehicle, reference compound or test compound is administered once or twice daily for 4 weeks.
Trabecular bone mineral density (mg/cm^3) of the metaphyseal part of the femur was measured with a pQCT (peripheral Quantitative Computed Tomography machine; XCT 960A, Stratec, Birkenfeld, Germany) directly after autopsy on fresh tissue. Two 360° scans, which have, due to the X-ray beam, a standard thickness of 1 mm were taken. The scans have a resolution of 0.148×0.148 mm. One scan was taken at 5.5 mm from the distal end of the femur, where trabecular bone mineral density of the metaphyseal part was measured. The other scan was taken in the diaphysis at 13.5 mm from the distal end, which contains no trabecular bone. In the latter scan cortical bone mineral density and the geometrical parameters, such as cortical thickness, total bone area, outer and inner diameter, were determined. Intra- and inter-assay variation for the measurement of trabecular bone mineral density in the distal femur were about 2-3%. The XCT-960A was calibrated with a standard of hydroxyapatite embedded in acrylic plastic.
Ovariectomy causes a statistically significant decrease in trabecular bone mineral density (P≤0.05, 2 way ANOVA).
The active dose (ED50) is the dose where a mean proportional difference in trabecular bone mineral density between 40 and 60% is reached as compared to the sham and ovariectomised group.
as §1

With `CCC[C@@H]1Cc2cc(O)ccc2[C@H]2CC[C@@]3(C)[C@@H](C[C@H]4CCCC[C@]43O)[C@H]12` [Code 38515, (7-alpha,16-alpha,17-alpha)-7-propyl-16,24-cyclo-19,21-dinorchola-1,3,5(10)-trien-3,17-diol] the “Relative binding affinity to the human progesterone (P) receptor” value [1] was 10%, the “Relative binding affinity to the human estradiol (E) receptor” value [2] was 16% and the ED50 [3] was 4 mg/kg. It also gave an ED50 [4] of 0.096 mg/kg and an ED50 (ovariectomised rats) of 0.19 mg/kg.
